Experimental data published in patent publication US12459918B2, “Isoquinolinone derivatives serving as rock protein kinase inhibitors and use thereof” (GUANGZHOU OCUSUN OPHTHALMIC BIOTECHNOLOGY CO., LTD., priority 2019, dated 2025).

System: New Zealand rabbits with normal intraocular pressure
Assay: Intraocular pressure reduction experiment in New Zealand rabbits with normal intraocular pressure
Assay type: in vivo
Conditions: for Intraocular pressure in the left eye: left eye (saline or solvent); for Reduction magnitude of intraocular pressure: left minus right eye
Source text: Experimental Example 2. Intraocular Pressure Reduction Experiment in New Zealand Rabbits with Normal Intraocular Pressure
Rabbits with normal intraocular pressure were adopted to screen intraocular pressure reduction actions of the potential compounds by eye-drop administration.
Male New Zealand rabbits, aged 97-127 days, weighted 2.65-3.5 kg, purchased from PizhouDongfang Breeding Co. Ltd.
The male New Zealand rabbits were randomly divided into 8 rabbits/per group using a computer-generated randomization method Animals in each group were eye-dropped with different test samples in the right eye, and normal saline or solvent in the left eye, and the volume of the administration was both 50 μL/eye. The intraocular pressure of the animals was measured before administration and in 1, 2, 4, 6, 8 and 10 hours after the administration, respectively.

[1] = 20 mg/mL group, 1 hour after administration
[2] = 20 mg/mL group, 2 hours after administration
[3] = 20 mg/mL group, 4 hours after administration
[4] = 20 mg/mL group, 6 hours after administration
[5] = 20 mg/mL group, 8 hours after administration
[6] = 20 mg/mL group, 10 hours after administration
[7] = 20 mg/mL group, before administration
[8] = 20 mg/mL in right eye, 1 hour after administration
[9] = 20 mg/mL in right eye, 2 hours after administration
[10] = 20 mg/mL in right eye, 4 hours after administration
[11] = 20 mg/mL in right eye, 6 hours after administration
[12] = 20 mg/mL in right eye, 8 hours after administration
[13] = 20 mg/mL in right eye, 10 hours after administration
[14] = 20 mg/mL in right eye, before administration
[15] = 20 mg/mL, 1 hour after administration
[16] = 20 mg/mL, 2 hours after administration
[17] = 20 mg/mL, 4 hours after administration
[18] = 20 mg/mL, 6 hours after administration
[19] = 20 mg/mL, 8 hours after administration
[20] = 20 mg/mL, 10 hours after administration
[21] = 20 mg/mL, before administration

Cc1cn(COC(=O)c2ccccc2)c(=O)c2cccc(S(=O)(=O)N3CCC(N)C3)c12 (stereo not shown) [Compound 60]
Intraocular pressure in the left eye (2.5 mg/mL group, 1 hour after administration): 11.63 mmHg
Intraocular pressure in the left eye (2.5 mg/mL group, 2 hours after administration): 11.58 mmHg
Intraocular pressure in the left eye (2.5 mg/mL group, 4 hours after administration): 12.83 mmHg
Intraocular pressure in the left eye (2.5 mg/mL group, 6 hours after administration): 12.38 mmHg
Intraocular pressure in the left eye (2.5 mg/mL group, 8 hours after administration): 12.29 mmHg
Intraocular pressure in the left eye (2.5 mg/mL group, 10 hours after administration): 14.33 mmHg
Intraocular pressure in the left eye (2.5 mg/mL group, before administration): 12.13 mmHg
Intraocular pressure in the right eye (2.5 mg/mL in right eye, 1 hour after administration): 8.38 mmHg
Intraocular pressure in the right eye (2.5 mg/mL in right eye, 2 hours after administration): 7.58 mmHg
Intraocular pressure in the right eye (2.5 mg/mL in right eye, 4 hours after administration): 9.04 mmHg
Intraocular pressure in the right eye (2.5 mg/mL in right eye, 6 hours after administration): 9.88 mmHg
Intraocular pressure in the right eye (2.5 mg/mL in right eye, 8 hours after administration): 11.33 mmHg
Intraocular pressure in the right eye (2.5 mg/mL in right eye, 10 hours after administration): 13.71 mmHg
Intraocular pressure in the right eye (2.5 mg/mL in right eye, before administration): 12.38 mmHg
Reduction magnitude of intraocular pressure (2.5 mg/mL, 1 hour after administration): 3.25 mmHg
Reduction magnitude of intraocular pressure (2.5 mg/mL, 2 hours after administration): 4 mmHg
Reduction magnitude of intraocular pressure (2.5 mg/mL, 4 hours after administration): 3.79 mmHg
Reduction magnitude of intraocular pressure (2.5 mg/mL, 6 hours after administration): 2.5 mmHg
Reduction magnitude of intraocular pressure (2.5 mg/mL, 8 hours after administration): 0.96 mmHg
Reduction magnitude of intraocular pressure (2.5 mg/mL, 10 hours after administration): 0.62 mmHg
Reduction magnitude of intraocular pressure (2.5 mg/mL, before administration): −0.25 mmHg
Intraocular pressure in the left eye (5.0 mg/mL group, 1 hour after administration): 11.33 mmHg
Intraocular pressure in the left eye (5.0 mg/mL group, 2 hours after administration): 11.42 mmHg
Intraocular pressure in the left eye (5.0 mg/mL group, 4 hours after administration): 12.63 mmHg
Intraocular pressure in the left eye (5.0 mg/mL group, 6 hours after administration): 12.75 mmHg
Intraocular pressure in the left eye (5.0 mg/mL group, 8 hours after administration): 13.29 mmHg
Intraocular pressure in the left eye (5.0 mg/mL group, 10 hours after administration): 14.08 mmHg
Intraocular pressure in the left eye (5.0 mg/mL group, before administration): 11.79 mmHg
Intraocular pressure in the right eye (5.0 mg/mL in right eye, 1 hour after administration): 7.83 mmHg
Intraocular pressure in the right eye (5.0 mg/mL in right eye, 2 hours after administration): 7.00 mmHg
Intraocular pressure in the right eye (5.0 mg/mL in right eye, 4 hours after administration): 7.79 mmHg
Intraocular pressure in the right eye (5.0 mg/mL in right eye, 6 hours after administration): 8.54 mmHg
Intraocular pressure in the right eye (5.0 mg/mL in right eye, 8 hours after administration): 10.13 mmHg
Intraocular pressure in the right eye (5.0 mg/mL in right eye, 10 hours after administration): 12.54 mmHg
Intraocular pressure in the right eye (5.0 mg/mL in right eye, before administration): 11.75 mmHg
Reduction magnitude of intraocular pressure (5.0 mg/mL, 1 hour after administration): 3.5 mmHg
Reduction magnitude of intraocular pressure (5.0 mg/mL, 2 hours after administration): 4.42 mmHg
Reduction magnitude of intraocular pressure (5.0 mg/mL, 4 hours after administration): 4.84 mmHg
Reduction magnitude of intraocular pressure (5.0 mg/mL, 6 hours after administration): 4.21 mmHg
Reduction magnitude of intraocular pressure (5.0 mg/mL, 8 hours after administration): 3.16 mmHg
Reduction magnitude of intraocular pressure (5.0 mg/mL, 10 hours after administration): 1.54 mmHg
Reduction magnitude of intraocular pressure (5.0 mg/mL, before administration): 0.04 mmHg
Intraocular pressure in the left eye (10.0 mg/mL group, 1 hour after administration): 12.08 mmHg
Intraocular pressure in the left eye (10.0 mg/mL group, 2 hours after administration): 12.08 mmHg
Intraocular pressure in the left eye (10.0 mg/mL group, 4 hours after administration): 12.96 mmHg
Intraocular pressure in the left eye (10.0 mg/mL group, 6 hours after administration): 12.38 mmHg
Intraocular pressure in the left eye (10.0 mg/mL group, 8 hours after administration): 13.04 mmHg
Intraocular pressure in the left eye (10.0 mg/mL group, 10 hours after administration): 13.38 mmHg
Intraocular pressure in the left eye (10.0 mg/mL group, before administration): 11.96 mmHg
Intraocular pressure in the right eye (10.0 mg/mL in right eye, 1 hour after administration): 7.96 mmHg
Intraocular pressure in the right eye (10.0 mg/mL in right eye, 2 hours after administration): 6.42 mmHg
Intraocular pressure in the right eye (10.0 mg/mL in right eye, 4 hours after administration): 7.13 mmHg
Intraocular pressure in the right eye (10.0 mg/mL in right eye, 6 hours after administration): 8.00 mmHg
Intraocular pressure in the right eye (10.0 mg/mL in right eye, 8 hours after administration): 9.42 mmHg
Intraocular pressure in the right eye (10.0 mg/mL in right eye, 10 hours after administration): 10.96 mmHg
Intraocular pressure in the right eye (10.0 mg/mL in right eye, before administration): 11.33 mmHg
Reduction magnitude of intraocular pressure (10.0 mg/mL, 1 hour after administration): 4.12 mmHg
Reduction magnitude of intraocular pressure (10.0 mg/mL, 2 hours after administration): 5.66 mmHg
Reduction magnitude of intraocular pressure (10.0 mg/mL, 4 hours after administration): 5.83 mmHg
Reduction magnitude of intraocular pressure (10.0 mg/mL, 6 hours after administration): 4.38 mmHg
Reduction magnitude of intraocular pressure (10.0 mg/mL, 8 hours after administration): 3.62 mmHg
Reduction magnitude of intraocular pressure (10.0 mg/mL, 10 hours after administration): 2.42 mmHg
Reduction magnitude of intraocular pressure (10.0 mg/mL, before administration): 0.63 mmHg
Intraocular pressure in the left eye [1]: 12.42 mmHg
Intraocular pressure in the left eye [2]: 12.96 mmHg
Intraocular pressure in the left eye [3]: 13.17 mmHg
Intraocular pressure in the left eye [4]: 12.54 mmHg
Intraocular pressure in the left eye [5]: 13.17 mmHg
Intraocular pressure in the left eye [6]: 13.71 mmHg
Intraocular pressure in the left eye [7]: 12.63 mmHg
Intraocular pressure in the right eye [8]: 10.21 mmHg
Intraocular pressure in the right eye [9]: 7.17 mmHg
Intraocular pressure in the right eye [10]: 7.92 mmHg
Intraocular pressure in the right eye [11]: 7.63 mmHg
Intraocular pressure in the right eye [12]: 8.83 mmHg
Intraocular pressure in the right eye [13]: 10.83 mmHg
Intraocular pressure in the right eye [14]: 12.42 mmHg
Reduction magnitude of intraocular pressure [15]: 2.21 mmHg
Reduction magnitude of intraocular pressure [16]: 5.79 mmHg
Reduction magnitude of intraocular pressure [17]: 5.25 mmHg
Reduction magnitude of intraocular pressure [18]: 4.91 mmHg
Reduction magnitude of intraocular pressure [19]: 4.34 mmHg
Reduction magnitude of intraocular pressure [20]: 2.88 mmHg
Reduction magnitude of intraocular pressure [21]: 0.21 mmHg
Reduction of intraocular pressure (concentrations of 2.5, 5 and 10 mg/mL): remarkably significant reduction of intraocular pressure

C[C@H]1CNCCCN1S(=O)(=O)c1cccc2cncc(F)c12 [Compound K-115, reference compound]
Intraocular pressure in the left eye [1]: 11.42 mmHg
Intraocular pressure in the left eye [2]: 11.67 mmHg
Intraocular pressure in the left eye [3]: 12.08 mmHg
Intraocular pressure in the left eye [4]: 12.38 mmHg
Intraocular pressure in the left eye [5]: 12.83 mmHg
Intraocular pressure in the left eye [6]: 15.25 mmHg
Intraocular pressure in the left eye [7]: 12.29 mmHg
Intraocular pressure in the right eye [8]: 7.54 mmHg
Intraocular pressure in the right eye [9]: 8.63 mmHg
Intraocular pressure in the right eye [10]: 10.83 mmHg
Intraocular pressure in the right eye [11]: 11.83 mmHg
Intraocular pressure in the right eye [12]: 12.63 mmHg
Intraocular pressure in the right eye [13]: 14.92 mmHg
Intraocular pressure in the right eye [14]: 12.92 mmHg
Reduction magnitude of intraocular pressure [15]: 3.88 mmHg
Reduction magnitude of intraocular pressure [16]: 3.04 mmHg
Reduction magnitude of intraocular pressure [17]: 1.25 mmHg
Reduction magnitude of intraocular pressure [18]: 0.55 mmHg
Reduction magnitude of intraocular pressure [19]: 0.2 mmHg
Reduction magnitude of intraocular pressure [20]: 0.33 mmHg
Reduction magnitude of intraocular pressure [21]: −0.63 mmHg
